Experimental data: patent US9194864B2, “Screening methods employing insects with blood brain barrier” (Entomopharm ApS, priority 2008, dated 2015)
Read-outs that look alike come from different tables or passages of the source. Each block holds one molecule with its values, some of them ahead of it.

Assays:
[1] = in vivo; settings: male, Locusta migratoria (grasshopper/locust)
[2] = Hemolymph concentration after injection into grasshoppers, measured by LCMS; settings: male, Locusta migratoria (grasshopper/locust), in vivo
[3] = cited from earlier work

SMILES: O=C1CC2(CCCC2)CC(=O)N1CCCCN1CCN(c2ncccn2)CC1 [buspirone]
- concentration at 5 min ([1]; 168 µg per insect): < 20 ng/mL
- concentration at 5 min ([2]; 168 µg per insect): 4500 ng/mL

- factor by which measured brain concentration is increased when the neural lamella is included (male, Locusta migratoria (grasshopper/locust), in vivo, 5 min): 3
SMILES: CN1CCN2c3ccccc3Cc3ccccc3C2C1 (stereo not drawn) [mianserin]
- penetration of the grasshopper blood brain barrier (BBB), conclusion in words (in vivo): penetrates the blood brain barrier (BBB) in grasshoppers

- endogenous level in the brain (concentration in brain supernatant) (no injection, washed in saline, 3 brains in one tube): 20 ng/mL
- concentration at 5 min ([1]; 12.6 µg per insect, average concentration in brain supernatant, 20 μl of 630 μg/ml injected, 5 minutes, washed in saline, neural lamella included, 3 brains per tube): 86.5 ng/mL
SMILES: NCCc1c[nH]c2ccc(O)cc12 [serotonin]
- penetration of the grasshopper blood brain barrier (BBB), conclusion in words (Locusta migratoria, injection): only penetrates the grasshopper BBB to a very low extend, if any at all
- BBB penetration in vertebrates, in words [3]: very low BBB penetration
- concentration at 5 min ([2]; 12.6 µg per insect): 4700 ng/mL
